Reference: patent publication US8664236B2, “1H-pyrrolo[2,3 b]-pyridine derivatives” (Merck Patent GmbH, priority 2010, dated 2014)
Converted amounts (≈) assume the structure as drawn. Like-named read-outs stand apart in the source and are kept apart here.

Tests used:
PDK1 (His6-PDK1(Δ1-50)) = PDK1 (His6-PDK1(Δ1-50)) (Homo sapiens (Human), UniProt O15530); test: Test for the inhibition of PDK1 (enzymatic, flashplate, 33P-ATP); format: biochemical
Protocol: 4. Test for the Inhibition of PDK1
The experimental batches are carried out in a flashplate system with 384 wells/microtitration plate.
The test substances are employed in corresponding concentrations (if desired in a dilution series). The control is carried out without test substance. The reaction is stopped using standard methods and washed. The activity of the kinase is measured via the incorporated radioactivity in top count. In order to determine the non-specific kinase reaction (blank value), the experimental batches are carried out in the presence of 100 nM staurosporine.
The radioactivity (decompositions per minute) of the blank value (no use of test substance in the presence of staurosporine) is subtracted from all other radioactivity values. The controls (kinase activity without test substance) are set equal to 100 percent and all other radioactivity values (after subtracting the blank value) are expressed set in relation thereto (for example in % of the control).

Solubility = format: physicochemical; settings: Table I
[1] = molecular target: PDK1 kinase in PC3 cells (PKB phosphorylation at Thr 308) (Homo sapiens (Human), UniProt O15530); test: Cellular testing of PDK1 kinase inhibitors in PC3 cells (Luminex, phospho-T308-PKB); format: cell-based
Sequence of PDK1 kinase in PC3 cells (PKB phosphorylation at Thr 308) (O15530 whole entry): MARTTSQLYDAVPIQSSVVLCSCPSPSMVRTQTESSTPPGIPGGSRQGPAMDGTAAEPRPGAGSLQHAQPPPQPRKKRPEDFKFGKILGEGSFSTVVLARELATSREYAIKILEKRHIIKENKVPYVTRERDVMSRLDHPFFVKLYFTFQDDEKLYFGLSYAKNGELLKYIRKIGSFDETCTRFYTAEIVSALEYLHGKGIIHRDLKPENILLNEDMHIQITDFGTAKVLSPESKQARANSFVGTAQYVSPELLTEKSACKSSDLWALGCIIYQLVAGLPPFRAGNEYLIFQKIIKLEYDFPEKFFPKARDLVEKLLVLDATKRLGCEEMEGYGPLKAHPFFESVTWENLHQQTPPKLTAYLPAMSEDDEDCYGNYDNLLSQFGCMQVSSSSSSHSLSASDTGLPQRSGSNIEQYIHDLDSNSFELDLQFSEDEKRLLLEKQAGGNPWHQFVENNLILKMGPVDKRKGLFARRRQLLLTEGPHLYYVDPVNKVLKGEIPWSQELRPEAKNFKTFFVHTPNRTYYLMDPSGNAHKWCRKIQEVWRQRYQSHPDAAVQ
Protocol: Method for the Cellular Testing of PDK1 Kinase Inhibitors in PC3 Cells
The cellular assay for the determination of the PDK1 kinase activity is carried out as a Luminex assay in the 96-well format. PC3 cells are sown at 20,000 cells per well in 100 μl of medium (45% of […]/45% of Ham's F12/10% of FCS) and incubated on the following day for 30 min with a serial dilution of the test substance (7 concentrations) under serum-free conditions. The cells are subsequently lysed using 90 μl of lysis buffer (20 mM tris/HCl pH 8.0, 150 mM NaCl, 1% of NP40, 10% of glycerol, 1% of phosphatase inhibitor I, 1% of phosphatase inhibitor II, 0.1% of protease inhibitor cocktail III, 0.01% of benzonase) per well, and the lysates are separated off from insoluble cell constituents by means of centrifugation through a 96-well filter plate (0.65 μm). The lysates are incubated overnight at 4° C. with shaking with Luminex beads to which an anti-total PKB antibody is coupled. The detection is carried out on the following day by addition of a phospho-T308-PKB antibody and a species-specific […] secondary antibody. The detection of phospho-T308-PKB is carried out by measurement in a Luminex100 instrument by determination of 100 events per cavity in a measurement time of 60 sec. […] The values of the batches treated with test substance are calculated therefrom as percentage of control, and IC50 values are determined by means of RS1.

[2] = Table I comparison, read-out: PDK1 inhibition assay enzymatic IC50
[3] = enzymatic PDK1 inhibition assay, read-out: enzymatic IC50
[4] = PKB phosphorylation at Thr 308 in PC3 cells, read-out: cellular IC50
[5] = Table I comparison, values in nM, read-out: PDK1 inhibition assay cellular IC50
[6] = Table I comparison, values given in μM, read-out: PDK1 inhibition assay cellular IC50

Sequence of PDK1 (His6-PDK1(Δ1-50)) (O15530 51-556): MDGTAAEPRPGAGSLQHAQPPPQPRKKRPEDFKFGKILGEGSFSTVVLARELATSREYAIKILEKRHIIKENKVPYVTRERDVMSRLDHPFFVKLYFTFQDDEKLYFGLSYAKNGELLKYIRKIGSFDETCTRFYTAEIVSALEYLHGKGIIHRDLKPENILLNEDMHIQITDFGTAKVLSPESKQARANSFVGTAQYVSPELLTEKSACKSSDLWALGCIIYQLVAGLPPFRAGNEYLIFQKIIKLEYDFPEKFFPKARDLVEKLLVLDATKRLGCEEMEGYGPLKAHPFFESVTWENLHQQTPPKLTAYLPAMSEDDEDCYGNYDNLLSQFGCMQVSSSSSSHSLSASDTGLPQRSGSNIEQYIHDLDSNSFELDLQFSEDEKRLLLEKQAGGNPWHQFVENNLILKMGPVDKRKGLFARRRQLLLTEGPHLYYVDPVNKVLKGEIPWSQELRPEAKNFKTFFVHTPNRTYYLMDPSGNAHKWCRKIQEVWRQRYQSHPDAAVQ

Compound | IC50 (PDK1 (His6-PDK1(Δ1-50)); [2]) [nM] | IC50 (PDK1 (His6-PDK1(Δ1-50)); [3]) [nM] | solubility (Solubility) [µg/mL] | IC50 [1, 4] [nM] | IC50 [1, 5] [nM] | IC50 [1, 6] [nM]
Cn1cc(-c2cnc3[nH]cc(-c4cc(N(CCO)c5ccccc5)nc(N)n4)c3c2)cn1 [A4, 2-({2-Amino-6-[5-(1-methyl-1H-pyrazol-4-yl)-1H-pyrrolo[2,3-b]-pyridin-3-yl]pyrimidin-4-yl}phenylamino)ethanol] | 13 | 13 | 1 (≈ 2.34 µM) | 250 | 250 | 
Cn1cc(-c2cnc3[nH]cc(-c4cc(C5(c6ccccc6)CCCC5)nc(N)n4)c3c2)cn1 [A6, 4-[5-(1-Methyl-1H-pyrazol-4-yl)-1H-pyrrolo[2,3-b]pyridin-3-yl]-6-(1-phenylcyclopentyl)pyrimidin-2-ylamine] | 130 | 130 | < 1 | 625 |  | 625
Cn1cc(-c2cnc3[nH]cc(-c4cc(N5CCOc6ccccc65)nc(N)n4)c3c2)cn1 [A27, 4-(2,3-Dihydrobenzo-1,4-oxazin-4-yl)-6-[5-(1-methyl-1H-pyrazol-4-yl)-1H-pyrrolo[2,3-b]pyridin-3-yl]pyrimidin-2-ylamine] |  | 5 |  | > 10000 |  | 
Cn1cc(-c2cnc3[nH]cc(-c4cc(N(CCN5CCOCC5)c5cccc(F)c5)nc(N)n4)c3c2)cn1 [A28, N4-(3-Fluorophenyl)-6-[5-(1-methyl-1H-pyrazol-4-yl)-1H-pyrrolo[2,3-b]pyridin-3-yl]-N4-(2-morpholin-4-ylethyl)pyrimidine-2,4-diamine] |  | 89 |  | 9700 |  | 
COCCN(c1cc(-c2c[nH]c3ncc(-c4cnn(C)c4)cc23)nc(N)n1)c1ccccc1Cl [A29, N4-(2-Chlorophenyl)-N4-(2-methoxyethyl)-6-[5-(1-methyl-1H-pyrazol-4-yl)-1H-pyrrolo[2,3-b]pyridin-3-yl]pyrimidine-2,4-diamine] |  | 7 |  | 25.5 |  | 
Cn1cc(-c2cnc3[nH]cc(-c4cc(N(CCCN)c5ccccc5)nc(N)n4)c3c2)cn1 [A31, N4-(3-Aminopropyl)-6-[5-(1-methyl-1H-pyrazol-4-yl)-1H-pyrrolo[2,3-b]pyridin-3-yl]-N4-phenylpyrimidine-2,4-diamine] | 8.7 | 8.7 |  | 6800 |  | 6800
Cn1cc(-c2cnc3[nH]cc(-c4cc(C5(c6ccccc6F)CC5)nc(N)n4)c3c2)cn1 [A42, 4-[1-(2-Fluorophenyl)cyclopropyl]-6-[5-(1-methyl-1H-pyrazol-4-yl)-1H-pyrrolo[2,3-b]pyridin-3-yl]pyrimidin-2-ylamine] |  | 45.5 |  | 20 |  | 
CC(=O)NCCCN(c1ccccc1)c1cc(-c2c[nH]c3ncc(-c4cnn(C)c4)cc23)nc(N)n1 [A43, N-[3-({2-Amino-6-[5-(1-methyl-1H-pyrazol-4-yl)-1H-pyrrolo-[2,3-b]pyridin-3-yl]pyrimidin-4-yl}phenylamino)propyl]acetamide] | 22 | 22 |  | 430 | 430 | 
CC(C)n1cc(-c2cnc3[nH]cc(-c4cc(C(C)(O)c5ccccc5)nc(N)n4)c3c2)cn1 (stereo not shown) [reference compound] | 54 |  | < 1 |  | 492 | 
CC(C)Cn1cc(-c2cnc3[nH]cc(-c4cc(CCCN)nc(N)n4)c3c2)cn1 [reference compound] | 11 |  |  |  |  | > 30000
CC(=O)NCCCc1cc(-c2c[nH]c3ncc(-c4cnn(C(C)C)c4)cc23)nc(N)n1 [reference compound] | 240 |  | > 46 |  |  | > 30000
CC(C)n1cc(-c2cnc3[nH]cc(-c4cc(C5(O)CCCC5)nc(N)n4)c3c2)cn1 [reference compound] | 61 |  | 8 (≈ 19.8 µM) |  |  | 3500
